“Also recorded” adds a separate entry of the source.
Key:
[1] = system: HUVEC (human umbilical vein endothelial cells); assay: HUVEC cell attachment on hydrogels based on various self-assembling sequence; conditions: HUVEC cultured for three days
Method: Cell attachment and viability of the hydrogels were evaluated using HUVEC (human umbilical vein endothelial cells). The peptide solutions shown in Table 22 were loaded in the culture inserts (10 mm diameter, Millicell-CM, Millipore) and gels were formed using cell culture medium (EGM-2-MV, Camblex). HUVEC were plated at 8×10^4 cells on the inserts and cultured for three days.
This implies that functionalization of the self-assembling peptide is useful regardless of the basic repetitive sequence, while the properties of hydrogel can be controlled by altering basic repetitive sequence in amino acid and length.

chondrocytes = conditions: encapsulated chondrocytes (Kisiday 2002); cited from earlier work
[2] = system: Mouse preosteoblast cell line (MC3T3-E1); assay: MC3T3-E1 cell proliferation on hydrogels (DNA content, PicoGreen); assay type: cell-based; conditions: pre-osteoblast; when it becomes hydrogel; no data shown
Method: Mouse preosteoblast cell line (MC3T3-E1) was used to compare the proliferation and differentiation effects of the motifs with RAD16-1 and Collagen-I hydrogels as controls. The proliferation was measured by DNA contents and the differentiation effects were evaluated using Alkaline phosphatase (ALP) activity and secreted Osteocalcin. Alkaline phosphatase is known to be differentiation marker of osteoblast in earlier stage. Secreted Osteocalcin is known to be differentiation marker of osteoblast in later stage and its activity is correlated with the bone mineralization.
1% RAD16-I solution [self-assembling peptide solution] was obtained as RAD16-I (Puramatrix™, 3DM Inc./BD Bioscience). The functionalized peptides of Table 2 were dissolved in water at final concentration of 1% (v/w). The functionalized peptide solutions were then mixed with 1% RAD16-I solution at a ratio of 1:1 (Table 4). Each peptide solution was loaded in the Culture plate inserts (10 mm diameter, Millicell-CM, Millipore). […]
Cell proliferation was evaluated using DNA contents in the hydrogel using PicoGreen dsDNA Kits (Molecular Probes). ALP activity was quantitatively measured from cell lysis using Alkaline Phosphatase Fluorescence Assay Kit (Sigma). Osteocalcin was measured from cell culture medium using Mouse Osteocalcin EIA Kit (Biomedical Technologies Inc.).

[3] = neutral pH range (Caplan 2002a); cited from earlier work
[4] = neutral pH range (Caplan 2002a); cited from earlier work; remark: listed apart in the source
[5] = pI and charge of the self-assembling peptide; assay type: physicochemical
Method: (§1) A comparison of the pH dependent property of 1% Ac(RADA)4GGFHRRIKA CONH2 (SEQ ID NO. 6) solution (Code: FHR), self assembling peptide sequence was compared with the heparin-binding motif. FIG. 12 depicts the isoelectric plot and corresponding rheological data when 0.1 N NaOH solution is added to FHR solution to adjust pH. The net charge of the peptide molecule is kept ≧2 when pH<10. Until at point of pH 5.7, the solution keeps viscous state. This movement of pH point where the peptide solution become gel is controlled by the charge induced by the additional motif to the self-assembling peptide. The induced charge prevents the peptide to aggregate to form the gel. Thus, the cell and the peptide solution can be mixed near neutral pH. After complete mixing, the gel formation can be made by adding salt containing solution (e.g., a solution containing a gellation agent or an iso-osmotic solute).
FIG. 18 depicts the isoelectric plot and Rheological data of PFS 1% solution when 0.1 N NaOH solution is added. 1% Ac(RADA)4GGSKPPGTSS-CONH2 solution (Code: SKP, peptide sequence: SEQ ID NO. 7) is a hydrogel composed of peptides with a self-assembling sequence and positively-charged functional motif. Although the pI value of the peptide is 9.74 and it keeps positive charge at near pH 7 range, the gel is formed at the point of pH 4.5. This is because the charge of the molecule around pH 7 range is +1 and smaller than the charge of Ac(RADA)4GGFHRRIKA CONH2 (FHR) (bigger than 3). The charge of the whole peptide should be larger than 2 when the cell is mixed. This pH should be somewhere in 6-8 in order to minimize the damage to the cells. As this sequence is heparin-binding motif, the fiber can attach to the heparin molecule which is abundant at cell surface. This heparin-binding motif provides a specific anchor to the cell. As described in Example 1, this binding synergistically works with the other binding motif (e.g., RGD) to induce biological stimuli for cell proliferation and differentiation. This effect is not limited to the sequences previously describe, but the other motifs, including -XBBXBX- and -XBBBXXBX- sequences. […]

bFGF = bFGF (Homo sapiens, UniProt P09038); assay: bFGF retention in peptide matrix (ELISA); conditions: bFGF 175 ng/insert loaded after gelation; during PBS washing and culturing; FIG. 19
Method: (§2) The effect of protein retention and delivery using the self-assembling peptide were studied (Table 11). bFGF was used as a model protein. The retention of bFGF in different peptide matrix in different charge condition was measured by ELISA after washing by PBS. After washing out unbound bFGF, the effect of protein retention to self-assembling peptide matrix were evaluated the using cell culturing of HUVEC (human umbilical vein endothelial cells).
The peptide solutions provided in Table 12 were loaded in the culture inserts (10 mm diameter, Millicell-CM, Millipore) and gels were formed using PBS. After gelation, bFGF solution in PBS was added inside and outside and plated for overnight. bFGF was loaded at 175 ng/insert. After loading bFGF, the PBS inside and outside the inserts were exchanged three times (2 hours, 9 hours and 12 hours) to remove unbound bFGF (Washing). After the washing, the PBS was exchanged to the cell culture medium (EGM-2-MV, Camblex) without attached growth factor (bFGF, VEGF and EGF) and placed more than a day (such that the fluid contained in the gel is exchanged from PBS to cell culture medium), then HUVEC (human umbilical vein endothelial cells) were plated at 7.5×10^4 cells on the inserts and cultured for three days.
Cell culturing using cell culture medium (EGM-2-MV) was used without attached growth factor on peptide matrix as negative control. Cell culturing using cell culture medium (EGM-2-MV) was used with attached growth factor on peptide matrix without loading growth factor as positive control. The bFGF concentration in washing buffer (PBS) and cell culture medium (EGM-2-MV) was measured using ELISA. The washing buffer and cell culture medium were exchanged at each measurement period (2 hours, 9 hours and 12 hours for washing, and at the cell seeding (D0), Day 1 (D 1), Day 2 (D2) and Day 3 (D3)). Growth factor retention rate was calculated by accumulating the amount of measured bFGF.

[6] = Isoelectric plot and rheological data when 0.1 N NaOH is added (pH of gel formation); assay type: physicochemical; conditions: 1% solution, 0.1 N NaOH solution added
From the text: At the point of pH 3.6, the viscous solution become gel and has a higher G′ (stiffness), G″ (viscosity) value. When the pH is increased, the gel breaks into small pieces and it becomes a solution with precipitated peptides. At lower pH, the peptide forms fibers and the fibers make the solution viscous. When the pH becomes higher, and approaches the pI value, the peptide fibers lose their charge and aggregate to form gel. The same gel formation happens when the peptide charge is screened by salts in a salt-containing solution (e.g., a solution containing a gellation agent or an iso-osmotic solute). Once the gel is formed, the fiber structure is broken into pieces to form a precipitate particle.
as §1
FIG. 18 depicts the isoelectric plot and Rheological data of PFS 1% solution when 0.1 N NaOH solution is added. 1% Ac(RADA)4GGSKPPGTSS-CONH2 solution (Code: SKP, peptide sequence: SEQ ID NO. 7) is a hydrogel composed of peptides with a self-assembling sequence and positively-charged functional motif. Although the pI value of the peptide is 9.74 and it keeps positive charge at near pH 7 range, the gel is formed at the point of pH 4.5. […]

[7] = system: HUVEC (human umbilical vein endothelial cells); assay: HUVEC cultured 2-dimensionally on hydrogels: cell attachment and morphology; assay type: cell-based; design: key to Capillary like morphology: weak: +; medium: ++; strong: +++; very strong: ++++; conditions: HUVEC cultured on hydrogels
Method: The effect of functional modified peptide matrix to HUVEC (human umbilical vein endothelial cells) was evaluated by culturing cells 2-dimensionally on the gel.
The peptide solutions shown in Table 19 were loaded in the culture inserts (10 mm diameter, Millicell-CM, Millipore) and gels were formed using cell culture medium (EGM-2-MV, Camblex). Collagen-1 and Matrigel were used as control matrices. HUVEC (human umbilical vein endothelial cells) were plated at 8×10^4 cells on the inserts and cultured up to 7 Days.

[8] = system: HUVEC (human umbilical vein endothelial cells); assay: HUVEC culture on bFGF loaded peptide matrix; assay type: cell-based; conditions: Day 3; bFGF loaded matrix compared to negative and positive control; FIG. 21
Method: as §2
The peptide solutions provided in Table 12 were loaded in the culture inserts (10 mm diameter, Millicell-CM, Millipore) and gels were formed using PBS. After gelation, bFGF solution in PBS was added inside and outside and plated for overnight. bFGF was loaded at 175 ng/insert. After loading bFGF, the PBS inside and outside the inserts were exchanged three times (2 hours, 9 hours and 12 hours) to remove unbound bFGF (Washing). […]
Cell culturing using cell culture medium (EGM-2-MV) was used without attached growth factor on peptide matrix as negative control. […] The bFGF concentration in washing buffer (PBS) and cell culture medium (EGM-2-MV) was measured using ELISA. […] Growth factor retention rate was calculated by accumulating the amount of measured bFGF. […]

MC3T3-E1 cells [9] = assay: Confocal microscopy of cells cultured on different functional peptide (DSG) concentration; assay type: cell-based, mouse
MC3T3-E1 cells [10] = assay: Effect of RAD:DSG mixture ratio on cell proliferation (DNA contents, 7 days); assay type: cell-based, mouse; conditions: RAD:DSG mixture ratio varied from 100:0 to 0:100, FIG. 8
Method: Effect of a mixture of self-assembling sequence peptide (e.g., 1% RAD16-1 peptide solution) and a functionalized peptide (SEQ ID NO. 7) with self-assembling sequence (RADA) (SEQ ID NO. 67) and functional motif (RGD), was evaluated (Tables 8-9) SEQ ID NO. 7 has an additional Glycine at the N-terminus (compared to SEQ ID NO. 4), which causes an increase in hydrophobicity of the hydrogel. Biologically SEQ ID NO. 4 and SEQ ID NO. 7 are considered to have similar effects.
Hydrogels were prepared so that the mixture ratio of RAD and DSG was varied from 100:0 to 0:100 (FIG. 8). Cells were prepared and seeded as described in Example 1. Cells were cultured on hydrogels for 7 days. Cell proliferation was evaluated using DNA contents in the hydrogel as same as Example 1.

[11] = Gel stiffness of hydrogel; assay type: physicochemical; conditions: compared to RAD

bFGF, sequence (P09038 143-288, species assumed): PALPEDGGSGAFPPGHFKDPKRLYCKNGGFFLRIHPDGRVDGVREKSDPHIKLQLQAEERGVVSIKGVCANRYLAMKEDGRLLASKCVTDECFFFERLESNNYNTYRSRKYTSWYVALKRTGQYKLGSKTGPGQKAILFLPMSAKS

AcIEIKIEIKIGGPRGSYRGDS-CONH2 [EPRG]
Cell attachment [1]: ++++ (++++: near confluence(>70%))

AcNKLDLKLDLKLDL-CONH2 (Ac-KLDLKLDLKLDL-NH2; not fully specified) [KLD12]
chondrocyte phenotype and ECM (chondrocytes): retained their morphology and developed a cartilage-like, mechanically functional ECM rich in proteoglycans and type-II collagen

Ac(FKFQ)3-CONH2 (Ac-FKFQFKFQFKFQ-NH2) [FKF = 1% solution; FKF-2P = 2% solution, reference compound]
cell proliferation on hydrogel [2]: supports cell proliferation
charge in neutral pH range [3]: positively charged
phase of peptide solution in neutral pH range [4]: stays solution phase; also recorded: stays in solution
Cell attachment [1]: ++ (++: 20-50%)
charge [5]: positively charged
pI [5]: 10.30,
bFGF (growth factor) retention rate (bFGF): high in the order of KFQ-2P, FHR-2P, RAD-2P then DGR-2P

AcFKFQFKFQFKFQGPRGDSGYRGDS-CONH2 [KPRG]
Cell attachment [1]: ++++ (++++: near confluence(>70%))

Ac(RADA)4GGSKPPGTSS-CONH2 (Ac-RADARADARADARADAGGSKPPGTSS-NH2) [Bone marrow homing; SKP = 1% solution]
pH at which the viscous peptide solution becomes gel [6]: 4.5
pI [5]: 9.74
charge of the molecule around pH 7 range ([5]; around pH 7): +1

Ac(RADA)4GGPFSSTKT-CONH2 (Ac-RADARADARADARADAGGPFSSTKT-NH2) [Bone marrow homing; PFS = 1% peptide solution]
Capillary like morphology [7]: +
Cell attachment [7]: ++ (++: 20-50%)

Ac(RADA)4GGDGRGDSVAYG-CONH2 (Ac-RADARADARADARADAGGDGRGDSVAYG-NH2) [SEQ ID NO. 5, Cell adhesion domain (Osteopontin); DGR-2P = 2% solution]
cell attachment and cell spread [8]: superior
charge [5]: negatively charged
pI [5]: 4.78,
bFGF (growth factor) retention rate (bFGF): high in the order of KFQ-2P, FHR-2P, RAD-2P then DGR-2P

Ac-IEIKIEIKI-NH2 [reference compound]
Cell attachment [1]: ++ (++: 20-50%)

Ac(RADA)4GPRGDSGYRGDSG-CONH2 (Ac-RADARADARADARADAGPRGDSGYRGDSG-NH2) [DSG = 1% solution]
cell location on the peptide matrix (MC3T3-E1 cells [9]; DSG ratio 10%, FIG. 9A): stayed on the surface of the peptide matrix
cell migration into the matrix (MC3T3-E1 cells [9]; DSG ratio 70%, FIG. 9B): up to 300 um
Cell proliferation (fluorescence intensity linear to the DNA contents) (MC3T3-E1 cells [10]): drop in fluorescence and drop
gel stiffness [11]: less stiff gel; also recorded: lower stiffness gel

AcIEIKIEIKIGGSKPPGTS-CONH2 [ESKP]
Cell attachment [1]: + (+: Weak(<20%))

AcIEIKIEIKIGGPFSSTKT-CONH2 [EPFS]
Cell attachment [1]: + (+: Weak(<20%))

— patent US8022178B2, “Modified self-assembling peptides” (Massachusetts Institute of Technology, priority 2006, dated 2011)
